The record followed here is ChEMBL document CHEMBL1132927, “New proline mimetics: synthesis of thrombin inhibitors incorporating cyclopentane- and cyclopentenedicarboxylic acid templates in the P2 position. Binding conformation investigated by X-ray crystallography” (J Med Chem, 2000).

A value given as a limit tells only on which side of the number the result lay.

The target of the assay is Prothrombin (Homo sapiens, UniProt P00734). In words: In vitro for the inhibition of thrombin.
The compound `CCN(C(=O)C1=CCC[C@H]1C(=O)NCc1ccc(C(=N)N)cc1)c1ccccc1` yielded an IC50 of 0.98 µM. With `N=C(N)c1ccc(CNC(=O)[C@@H]2CCC=C2C(=O)NCC2CCCCC2)cc1` the figure was 9.33 µM; with `COC(=O)[C@H](NC(=O)[C@@H]1CCC[C@H]1C(=O)NCc1ccc(C(=N)N)cc1)c1ccccc1`, 20.4 µM; with `N=C(N)c1ccc(CNC(=O)[C@@H]2CCC=C2C(=O)N2CCCCC2)cc1`, 6.03 µM. With `N=C(N)c1ccc(CNC(=O)[C@@H]2CCC[C@H]2C(=O)NC2CCCCC2)cc1` the figure was 1.32 µM; with `N=C(N)c1ccc(CNC(=O)[C@@H]2CCC[C@H]2C(=O)N[C@@H](C(=O)O)c2ccccc2)cc1`, above 132 µM; with `CCON(C(=O)C1=CCC[C@H]1C(=O)NCc1ccc(C(=N)N)cc1)C1CCCCC1`, 0.87 µM.

The compound `N=C(N)c1ccc(CNC(=O)[C@H]2CCC[C@@H]2C(=O)NCc2ccccc2)cc1` came in with a concentration for half-maximal inhibition (IC50) above 132 µM.

As for `N=C(N)c1ccc(CNC(=O)[C@@H]2CCC[C@H]2C(=O)NCc2ccccc2)cc1`, half-maximal inhibition (IC50) required 44.7 µM. With `N=C(N)c1ccc(CNC(=O)[C@@H]2CCC=C2C(=O)NC2CCCCC2)cc1` the figure was 1.51 µM.
